Laboratory results as given in patent publication US12054485B2, “Substituted imidazoquinolines” (BIONTECH SE, priority 2017, dated 2024).

System: Human PBMCs
Assay: IFN-α induction by TLR agonists in human PBMCs (Luminex)
Assay type: cell-based
Conditions: 24 h incubation, maximum of bell-shaped curve over 0.0003-1 μM, Table 1
Method: 1) IFN-α Induction Assay—IFN-α induction by TLR Agonists in Human PBMCs
Abbreviations: BSA=bovine serum albumine; PBS=phosphate buffer pH 7.4; PE=phycoerythrin; EDC=1-ethyl-3-(3-dimethylaminopropyl)carbodiimide hydrochloride.
Materials and Devices: Bio Plex 200 Luminex device, and BioPlex Manager software; MultiScreen Filter Plates (Millipore, MABVN1250); low binding reaction vials 1.5 ml (Sarstedt, 72.706.600); Activation Buffer: 0.1M Na-dihydrogen phosphate, 0.1M Di-Na hydrogen phosphate pH 6.2; Sulfo-NHS (N-hydroxysulfosuccinimide) solution: 50 mg/ml in water (freshly prepared); EDC solution: 50 mg/ml in water (freshly prepared); Coupling Buffer: PBS; Washing Buffer: PBS+0.05% Tween20; Blocking Buffer: PBS+10 mg/ml BSA+0.05% sodium azide; Assay Buffer: PBS+10 mg/ml BSA;
Other materials and devices (pipets, reaction vessels, shaker, etc.) were standard lab equipment; water was MilliQ grade quality, buffers were sterile filtered before use.
(Pre-)Incubation of Cells:
In each well of a 96-well U-bottom plate 200,000 PBMCs were pre-incubated in medium (RPMI1640-Gibco #61870-044+10% FBS+1% L-glutamine) for 5 hours at 37° C. and 5% CO2 before the compounds of the present invention or controls were added, respectively. Upon addition of compounds of the present invention or controls, the cells are incubated for another 24 h at 37° C. and 5% CO2.
Luminex assay, Step 1: Coupling of antibody to beads: • transfer a suspension (beads are stored in buffer as provided by manufacturer) of about 5 million MicroPlex Microspheres (=beads) into a low binding reaction vial • centrifuge bead suspension for 1 min at 10,000 g, discard supernatant and resuspend pellet in 160 μl Activation Buffer, repeat once • add 20 μl Sulfo-NHS solution and 20 μl EDC solution, vortex • incubate for 20 min in the absence of light • centrifuge bead suspension for 1 min at 10,000 g, discard supernatant and resuspend pellet in 500 μl Coupling Buffer, repeat once • add capture antibody (CaptureAK eBioscience #BMS160, 5 μg per 1 Mio beads) • incubate 2 h at RT in the absence of light while swaying • centrifuge bead suspension for 1 min at 10,000 g, discard supernatant and resuspend pellet in 500 μl Washing Buffer, repeat once • centrifuge bead suspension for 1 min at I0,000 g, discard supernatant and resuspend pellet in 100 μl Blocking Buffer
Luminex assay, Step 2: Measurement • add 100 μlAssay Buffer into each filter plate well (seal any unused wells with adhesive tape), then remove buffer • add about 2,000 beads per well per analyte (per analyte, a different bead type with distinct fluorescence color is used), suspended in […] of Assay Buffer • remove buffer and wash twice with 100 μl Washing Buffer per well • per well, add 50 μl sample solution from the (pre-)incubation step (cell supernatant), or Standard (IFN-α standard eBioscience #BMS216MST—concentration gradient, highest standard concentration 2500 pg/ml) or Assay Buffer (as blanks) • shake plate • incubate plate for 2 h at RT in the absence of light, while swaying the plate • wash three times with 100 μl Washing Buffer per well • add 25 μl antibody detection mix (DetectionAK eBioscience #BMS1016BT diluted 1:1000) in Assay Buffer per well, then vortex plate • incubate plate for 1 h at RT in the absence of light, while swaying the plate • wash three times with 100 μl Washing Buffer per well • add 50 μl Streptavidin/PE (diluted 1:200 in Assay Buffer) per well, then vortex plate • incubate plate for 10 min at RT in the absence of light, while swaying the plate • wash three times with 100 μl Washing Buffer per well • add 100 μl Assay Buffer per well, then vortex plate • start Luminex measurement according to manufacturer's instructions, measuring at least 50 beads per well per analyte
The compounds were tested at 8 different concentrations (1 μM, 0.3 μM, 0.1 μM, 0.03 μM, 0.01 μM 0.003 μM, 0.001 μM, 0.0003 μM) using a half-logarithmic dilution. […]

For `CCc1nc2c(N)nc3ccccc3c2n1CCCCN(C(C)=O)C1CCOCC1` [Example 1, N-(4-(4-Amino-2-ethyl-1H-imidazo[4,5-c]quinolin-1-yl)butyl)-N-(tetrahydro-2H-pyran-4-yl)acetamide], the “Maximum IFN-α release” value was 1750 pg/mL.
